In this test the target is T1, Human Akt1 (UniProt entry P31749) (Homo sapiens, UniProt P31749, C296S/C310S/C344S/E49C).
T1 construct: made in house; host or cells: baculovirus, TriEx Sf9 cells
Description: iFLiK assay (fluorophore-labeled Akt1 binding assay). The conditions noted are these: for effect on PyMPO fluorescence (emission spectrum): PyMPO-labeled Akt1. As for the experimental part:
Measurements were carried out in black 384-well plates (Greiner Bio One). Labeled Akt1 was diluted to 200 nM in the measurement buffer consisting of 50 mM HEPES pH 7.4, 200 mM NaCl and 0.01% Triton-X 100. Dilution series of candidate compounds were prepared in DMSO at 21X the final desired concentration. Compounds (0.5 µL) were then mixed with labeled Akt1 (10 µL) in triplicates and with measurement buffer only in quadruplicates at 12 different concentrations to achieve final compound concentrations ranging from 0.8 nM to […]. Each well contained 5% v/v DMSO after mixing. Plates were then covered with an adhesive plastic foil and incubated for 2 h at RT prior to measurement of emission intensities at fluorophore-specific wavelengths (Table 1) using a Tecan Infinite M1000 plate reader. Compound auto-fluorescence was compensated by subtraction of the average background signals obtained in the absence of labeled kinase. The respective assay readout for the various Akt-fluorophore conjugates specified in Table 1 were fit to a Hill 4-parameter equation to determine Kd values for allosteric Akt ligands. Each reaction was performed in triplicate and at least three independent measurements of each Kd were determined for each ligand. Table 1: Overview of fluorophore probes.
Screening initiatives were carried out in black 384-well plates (Greiner Bio One). PyMPO-labeled Akt1 was diluted to 200 nM in the measurement buffer consisting of 50 mM HEPES pH 7.4, 200 mM Nacl and 0.01% Triton-X 100. Each candidate compound was prepared in DMSO at 210 µM. Compounds (0.5 µL) were then mixed each with labeled Akt1 (10 µL) and with measurement buffer only to achieve final compound concentrations of 10 µM. Each well contained 5% v/v DMSO after mixing. Plates were then covered with an adhesive plastic foil and incubated for 2 h at RT prior to measurement using a Tecan Infinite M1000 plate reader emission intensities at 508 nm and 638 nm, using both 419 nm and 440 nm for excitation. Compound auto-fluorescence was compensated by subtraction of the average background signals obtained in the absence of labeled kinase. Ratio of fluorescence intensities fl638/fl508 were calculated from the background-subtracted values. For hit picking criteria, see Table 2 below.

SMILES strings stand for the structures.

T1 sequence (P31749 whole entry E49C/C296S/C310S/C344S, one chain of several): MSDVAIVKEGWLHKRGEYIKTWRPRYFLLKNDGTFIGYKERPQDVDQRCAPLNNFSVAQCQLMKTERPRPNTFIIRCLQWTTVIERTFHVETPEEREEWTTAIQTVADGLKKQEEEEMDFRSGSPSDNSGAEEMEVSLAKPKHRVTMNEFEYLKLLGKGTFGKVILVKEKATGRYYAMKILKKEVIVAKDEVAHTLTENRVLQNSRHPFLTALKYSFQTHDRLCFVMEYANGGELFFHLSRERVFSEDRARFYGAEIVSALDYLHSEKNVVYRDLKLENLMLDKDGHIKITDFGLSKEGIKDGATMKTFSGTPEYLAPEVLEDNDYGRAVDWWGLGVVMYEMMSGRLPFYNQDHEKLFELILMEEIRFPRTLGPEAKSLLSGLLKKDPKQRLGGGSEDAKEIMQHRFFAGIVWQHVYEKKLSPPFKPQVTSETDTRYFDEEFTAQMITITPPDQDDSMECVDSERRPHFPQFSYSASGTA

With `CCn1c(-c2nonc2N)nc2c(C#CC(C)(C)O)ncc(OC[C@H]3CCCNC3)c21` [GSK690693], the “effect on PyMPO fluorescence (emission spectrum)” value (“effect on PyMPO fluorescence” below) is “no effect”. For the same compound, the “response of the labeled kinase” value (collection of fluorophore-labeled kinases, dilution series 0.8 nM to 50 µM) was “unresponsive”.

On to `NC1(Cc2ccc(Cl)cc2)CCN(c2ncnc3[nH]ccc23)CC1` [CCT128930], for which the “effect on PyMPO fluorescence” value is recorded as “no effect”.

For `O=C(O[C@@H]1Cc2c(O)cc(O)cc2O[C@@H]1c1cc(O)c(=O)c2c(O)c(O)cc([C@H]3Oc4cc(O)cc(O)c4C[C@H]3O)c2c1)c1cc(O)c(O)c(O)c1` [XX8], the “effect on PyMPO fluorescence” value is “reduction of the fluorescence intensity”.

As to `NC1(c2ccc(-c3nc4ccn5c(=O)[nH]nc5c4cc3-c3ccccc3)cc2)CCC1` [MK-2206], the “effect on PyMPO fluorescence” value was “bathochromic shift”.

These data come from patent EP2810648A1, “Targeting domain-domain interaction for the identification of kinase modulators” (Rauh, Daniel, priority 2013, dated 2014).
